For one assay, the system named is hWB. In words: IC50 hWB (TNF-α release assay). The following applies: Homo sapiens. The assay is classed as cell-based.
In a further assay the target is T1, p38-α (Homo sapiens, UniProt Q16539).
T1 construct: purchased Millipore
Briefly: p38 kinase assay, p38-α with peptide substrate (Caliper LabChip). The note with it: read-out: IC50 p38a*peptide. It counts as biochemical. As for the experimental part:
Alternatively, p38 kinase assays were performed in a reaction volume of 70 µL in a 384-well plate, at 30° for […] under the following conditions: 50 mM Hepes, pH 7.4, 10 mM MgCl2, 1 mg/ml FA Free BSA, 1 mM DTT, 10 μM ATP, 10 μM p38 peptide [Caliper Life Sciences FL-Peptide 8 (5-FAM-IPTSPITTTYFFEKKK-COOH)] and 5.7 nM p38-α (Millipore), or 14.3 nM unactivated MAPKAP kinase-2, 0.18 nM p38-α (Millipore) and 2 uM RSK peptide [Caliper Life Sciences FL-Peptide 11 (5-FAM-KKLNRTLSVA-COOH)]. Serial dilutions of compounds were added to each reaction in 700 nL DMSO. 700 nL of DMSO was added to the control wells of the reaction plate as the no inhibitor control for each inhibitor titration. The reaction was terminated by the addition of 15 μL of a 100 mM EDTA. Product formation was analyzed using the Caliper LabChip 3000. The Separation buffer contained 100 mM HEPES pH 7.5, 0.015% Brij-35, 2.5% Coating Reagent #3 (Caliper Life Sciences) and 10 mM EDTA. Calculation of the substrate product ratios are performed using the HTS Well Analyzer software provided by Caliper Life Sciences and the percent inhibition at each compound concentration is determined.

Here are results for 28 molecules from patent publication US8513289B2, “P38 kinase inhibiting agents” (Merck Sharp & Dohme Corp., priority 2009, dated 2013).

T1 sequence (Q16539 whole entry): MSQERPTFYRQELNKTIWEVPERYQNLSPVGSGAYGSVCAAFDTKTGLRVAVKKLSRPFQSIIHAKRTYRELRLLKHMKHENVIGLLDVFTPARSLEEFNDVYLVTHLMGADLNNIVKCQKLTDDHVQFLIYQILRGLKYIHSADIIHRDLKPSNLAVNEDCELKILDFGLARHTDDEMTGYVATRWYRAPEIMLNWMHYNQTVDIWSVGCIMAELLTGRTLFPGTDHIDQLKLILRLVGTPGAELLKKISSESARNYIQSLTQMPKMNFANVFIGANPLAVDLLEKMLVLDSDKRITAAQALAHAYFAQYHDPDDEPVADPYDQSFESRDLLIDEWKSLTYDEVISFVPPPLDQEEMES

As for `CC(C)Cc1cc(-c2nnc(CNC(=O)c3cc(C(=O)c4c(F)cc(F)cc4F)c[nH]3)s2)[nH]n1` [Example 26, N-{[5-(3-isobutyl-1H-pyrazol-5-yl)-1,3,4-thiadiazol-2-yl]methyl}-4-(2,4,6-trifluorobenzoyl)-1H-pyrrole-2-carboxamide], the IC50 – broadly, the concentration that gives 50% inhibition – is 163 nM with hWB and 24 nM at p38-α.

In the case of `O=C(NCc1nnc(-c2ccn[nH]2)s1)c1cc(C(=O)c2c(F)cc(F)cc2F)c[nH]1` [Example 32, N-{[5-(1H-pyrazol-5-yl)-1,3,4-thiadiazol-2-yl]methyl}-4-(2,4,6-trifluorobenzoyl)-1H-pyrrole-2-carboxamide], the IC50 with hWB came out at 84 nM; on p38-α, 43 nM.

As to `CC(C)c1nnc(CNC(=O)c2cc(C(=O)c3c(F)cc(F)cc3F)c[nH]2)s1` [Example 3, N-[(5-isopropyl-1,3,4-thiadiazol-2-yl)methyl]-4-(2,4,6-trifluorobenzoyl)-1-H-pyrrole-2-carboxamide], the IC50 on p38-α is 479 nM.

Take `Cc1cc(-c2nnc(CNC(=O)c3cc(Cc4c(F)cc(F)cc4F)c[nH]3)s2)[nH]n1` [Example 46, N-{[5-(3-methyl-1H-pyrazol-5-yl)-1,3,4-thiadiazol-2-yl]methyl}-4-(2,4,6-trifluorobenzyl)-1H-pyrrole-2-carboxamide]: the IC50 in the assay on hWB is 3270 nM; at p38-α, 243 nM.

With `O=C(NCc1nnc(-c2c(F)cccc2F)s1)c1cc(C(=O)c2c(F)cc(F)cc2F)c[nH]1` [Example 11, N-{[5-(2,6-difluorophenyl)-1,3,4-tbiadiazol-2-yl]methyl}-4-(2,4,6-trifluorobenzoyl)-1H-pyrrole-2-carboxamide], the IC50 in the assay with hWB was 2850 nM; at p38-α, 276 nM.

On to `O=C(NCc1nnc(-c2ccc(F)cc2)s1)c1cc(C(=O)c2c(F)cc(F)cc2F)c[nH]1` [Example 8, N-{[5-(4-fluorophenyl)-1,3,4-thiadiazol-2-yl]methyl}-4-(2,4,6-trifluorobenzoyl)-1H-pyrrole-2-carboxamide], for which the IC50 in the assay with hWB is 1000 nM; on p38-α, 50 nM.

On to `O=C(NCc1nnc(-c2cc[nH]c(=O)c2)s1)c1cc(C(=O)c2c(F)cc(F)cc2F)c[nH]1` [Example 38, N-{[5-(2-oxo-1,2-dihydropyridin-4-yl)-1,3,4-thiadiazol-2-yl]methyl}-4-(2,4,6-trifluorobenzoyl)-1H-pyrrole-2-carboxamide], for which the IC50 at p38-α came out at 26.9 nM.

For the molecule `O=C(NCc1nnc(-c2cccnc2)s1)c1cc(C(=O)c2c(F)cc(F)cc2F)c[nH]1` [Example 13, N-[(5-pyridin-3-yl-1,3,4-thiadiazol-2-yl)methyl]-4-(2,4,6-trifluorobenzoyl)-1H-pyrrole-2-carboxamide], the IC50 in the assay with hWB stood at 747 nM; on p38-α, 40 nM.

With `O=C(NCc1nnc(-c2[nH]nc3c2CCC3)s1)c1cc(C(=O)c2c(F)cc(F)cc2F)c[nH]1` [Example 31, N-{[5-(2,4,5,6-tetrahydrocyclopenta[c]pyrazol-3-yl)-1,3,4-thiadiazol-2-yl]methyl}-4-(2,4,6-trifluorobenzoyl)-1H-pyrrole-2-carboxamide], the half-maximal inhibitory concentration (IC50) at p38-α was 36 nM.

Turning to `COc1ccc(-c2nnc(CNC(=O)c3cc(C(=O)c4c(F)cc(F)cc4F)c[nH]3)s2)cc1` [Example 10, N-{[5-(4-methoxyphenyl)-1,3,4-thiadiazol-2-yl]methyl}-4-(2,4,6-trifluorobenzoyl)-1H-pyrrole-2-carboxamide], the IC50 at p38-α stood at 31 nM.

In the case of `Cc1nnc(CNC(=O)c2cc(C(=O)c3ccc(F)cc3F)c[nH]2)s1` [Example 39, 4-(2,4-difluorobenzoyl)-N-[(5-methyl-1,3,4-thiadiazol-2-yl)methyl]-1H-pyrrole-2-carboxamide], the IC50 at p38-α is 222 nM.

With `O=C(NCc1nnc(-c2ccc(=O)[nH]c2)s1)c1cc(C(=O)c2c(F)cc(F)cc2F)c[nH]1` [Example 36, N-{[5-(6-oxo-1,6-dihydropyridin-3-yl)-1,3,4-thiadiazol-2-yl]methyl}-4-(2,4,6-trifluorobenzoyl)-1H-pyrrole-2-carboxamide], the IC50 at p38-α amounted to 70.4 nM.

Regarding `CC(C)c1cc(-c2nnc(CNC(=O)c3cc(C(=O)c4c(F)cc(F)cc4F)c[nH]3)s2)[nH]n1` [Example 25, N-{[5-(3-isopropyl-1H-pyrazol-5-yl)-1,3,4-thiadiazol-2-yl]methyl}-4-(2,4,6-trifluorobenzoyl)-1H-pyrrole-2-carboxamide], the IC50 is 90 nM in the assay with hWB and 10 nM at p38-α.

Consider `COc1ccc(-c2nnc(CNC(=O)c3cc(C(=O)c4c(F)cc(F)cc4F)c[nH]3)s2)cn1` [Example 17, N-{[5-(6-methoxypyridin-3-yl)-1,3,4-thiadiazol-2-yl]methyl}-4-(2,4,6-trifluorobenzoyl)-1H-pyrrole-2-carboxamide], for which the 50% inhibitory concentration (IC50) in the assay with hWB amounted to 2820 nM; at p38-α it was 78 nM.

`O=C(NCc1nnc(-c2cc(C(F)(F)F)n[nH]2)s1)c1cc(C(=O)c2c(F)cc(F)cc2F)c[nH]1` [Example 27, 4-(2,4,6-trifluorobenzoyl)-N-({5-[3-(trifluoromethyl)-1H-pyrazol-5-yl]-1,3,4-thiadiazol-2-yl}methyl)-1H-pyrrole-2-carboxamide]: the 50% inhibitory concentration (IC50) at p38-α came to 1400 nM.

For `CC(C)(C)c1nnc(CNC(=O)c2cc(C(=O)c3c(F)cc(F)cc3F)c[nH]2)s1` [Example 5, N-[(5-tert-butyl-1,3,4-thiadiazol-2-yl)methyl]-4-(2,4,6-trifluorobenzoyl)-1H-pyrrole-2-carboxamide], at p38-α, the concentration for half-maximal inhibition (IC50) stood at 608 nM.

In the case of `Cc1cc(-c2nnc(CNC(=O)c3cc(C(=O)c4c(F)cc(F)cc4F)c[nH]3)s2)nn1C` [Example 33, N-{[5-(1,5-dimethyl-1H-pyrazol-3-yl)-1,3,4-thiadiazol-2-yl]methyl}-4-(2,4,6-trifluorobenzoyl)-1H-pyrrole-2-carboxamide], the half-maximal inhibitory concentration (IC50) at p38-α is 35.1 nM.

As to `CC1(c2nnc(CNC(=O)c3cc(C(=O)c4c(F)cc(F)cc4F)c[nH]3)s2)CC1` [Example 23, N-{[5-(1-methylcyclopropyl)-1,3,4-thiadiazol-2-yl]methyl}-4-(2,4,6-trifluorobenzoyl)-1H-pyrrole-2-carboxamide], the 50% inhibitory concentration (IC50) on p38-α worked out at 826 nM.

Consider `O=C(NCc1nnc(C2CCC2)s1)c1cc(C(=O)c2c(F)cc(F)cc2F)c[nH]1` [Example 22, N-[(5-cyclobutyl-1,3,4-thiadiazol-2-yl)methyl]-4-(2,4,6-trifluorobenzoyl)-1H-pyrrole-2-carboxamide], for which the IC50 on p38-α was determined as 489 nM.

Turning to `O=C(NCc1nnc(-c2csnn2)s1)c1cc(C(=O)c2c(F)cc(F)cc2F)c[nH]1` [Example 30, N-{[5-(1,2,3-thiadiazol-4-yl)-1,3,4-thiadiazol-2-yl]methyl}-4-(2,4,6-trifluorobenzoyl)-1H-pyrrole-2-carboxamide], the IC50 on p38-α is 634 nM.

In the case of `O=C(NCc1nnc(-c2cccc(=O)[nH]2)s1)c1cc(C(=O)c2c(F)cc(F)cc2F)c[nH]1` [Example 37, N-{[5-(6-oxo-1,6-dihydropyridin-2-yl)-1,3,4-thiadiazol-2-yl]methyl}-4-(2,4,6-trifluorobenzoyl)-1H-pyrrole-2-carboxamide], the IC50 on p38-α is 173 nM.

As to `COc1cccc(-c2nnc(CNC(=O)c3cc(C(=O)c4c(F)cc(F)cc4F)c[nH]3)s2)n1` [Example 18, N-{[5-(6-methoxypyridin-2-yl)-1,3,4-thiadiazol-2-yl]methyl}-4-(2,4,6-trifluorobenzoyl)-1H-pyrrole-2-carboxamide], the 50% inhibitory concentration (IC50) at p38-α came to 94 nM.

For the molecule `CCOc1ncccc1-c1nnc(CNC(=O)c2cc(C(=O)c3c(F)cc(F)cc3F)c[nH]2)s1` [Example 16, N-{[5-(2-ethoxypyridin-3-yl)-1,3,4-thiadiazol-2-yl]methyl}-4-(2,4,6-trifluorobenzoyl)-1H-pyrrole-2-carboxamide], the IC50 on p38-α stood at 135 nM.

Regarding `COc1cc(-c2nnc(CNC(=O)c3cc(C(=O)c4c(F)cc(F)cc4F)c[nH]3)s2)ccn1` [Example 19, N-{[5-(2-methoxypyridin-4-yl)-1,3,4-thiadiazol-2-yl]methyl}-4-(2,4,6-trifluorobenzoyl)-1H-pyrrole-2-carboxamide], the half-maximal inhibitory concentration (IC50) on p38-α is 85 nM.

As to `CCC(C)c1nnc(CNC(=O)c2cc(C(=O)c3c(F)cc(F)cc3F)c[nH]2)s1` (stereo not drawn) [Example 24, N-[(5-sec-butyl-1,3,4-thiadiazol-2-yl)methyl]-4-(2,4,6-trifluorobenzoyl)-1H-pyrrole-2-carboxamide], the half-maximal inhibitory concentration (IC50) on p38-α came to 1020 nM.

Regarding `Cc1nnc(CNC(=O)c2cc(C(=O)c3c(F)cccc3F)c[nH]2)s1` [Example 40, 4-(2,6-difluorobenzoyl)-N-[(5-methyl-1,3,4-thiadiazol-2-yl)methyl]-1H-pyrrole-2-carboxamide], the half-maximal inhibitory concentration (IC50) at p38-α was found to be 150 nM.

With `O=C(NCc1nnc(-c2ccccn2)s1)c1cc(Cc2c(F)cc(F)cc2F)c[nH]1` [Example 44, N-[(5-pyridin-2-yl-1,3,4-thiadiazol-2-yl)methyl]-4-(2,4,6-trifluorobenzyl)-1H-pyrrole-2-carboxamide], at p38-α, the IC50 turned out to be 555 nM.

On to `O=C(NCc1nnc(-c2cn[nH]n2)s1)c1cc(C(=O)c2c(F)cc(F)cc2F)c[nH]1` [Example 34, N-{[5-(2H-1,2,3-triazol-4-yl)-1,3,4-thiadiazol-2-yl]methyl}-4-(2,4,6-trifluorobenzoyl)-1,1-pyrrole-2-carboxamide], for which, at p38-α, the concentration for half-maximal inhibition (IC50) was found to be 180 nM.
